Data from patent US10688075B2 (Morgandane Scientific, LLC, priority 2018, dated 2020).
Values joined by “and” are separate entries in the source; they are usually repeats but may differ in a detail not shown here. Identical values can stand only once. Like-named read-outs stand apart in the source and are kept apart here.

How the values were obtained:
[1] = cited from earlier work
[2] = in vivo; cited from earlier work
P-gp = P-gp (Homo sapiens, UniProt P08183); settings: in vitro; cited from earlier work
[3] = Plasma rivaroxaban pharmacokinetics: single 20 mg rivaroxaban alone (Period I) or with 360 mg verapamil at steady state (Period III), subjects with mild renal impairment or normal renal function
Experimental: These patients are subjected to various one-time and longitudinal pharmacokinetic (PK) and pharmacodynamic (PD) analyses. […] Cmax and AUC values for each dose are calculated. Patients also undergo a general physical exam to determine overall health and well-being.
All the pharmacokinetic and pharmacodynamics analyses are repeated on patients receiving this treatment.
Subjects with either mild renal impairment or with normal renal function were enrolled.
Renal function of the subjects was determined by measuring creatinine clearance (CLcr) rates. Subjects who had CLcr≥90 mL/min were categorized as having normal renal function whereas subjects who had CLcr 50-79 mL/min were categorized as mildly renally impaired. Blood samples were collected and processed according to the standard protocols.

Prothrombin Time = experiment: Prothrombin time (STA Neoplastin method) after rivaroxaban with or without verapamil; type: in vivo, human
Source text: As used herein, the term “prothrombin time” (PT) refers to a blood test that measures how long it takes blood to clot. In some embodiments, a prothrombin time test can be used to measure of a patient's haemostasis. In some embodiments, PT can be used to measure the effectiveness or exposure to a blood clotting drug. Persons having skill in the art sometimes interchangeably refer to a PT test as an INR. […] Additionally, PT measurements are subject to variability based on the test reagent and laboratory test ranges determined by each institution.
Additional pharmacodynamic metrics are also gathered for each patient, including, but not limited to: prothrombin time (using the STA® Neoplastin® method) and Factor Xa activity. […] Renal Function and non-vitamin K oral anticoagulants in comparison with warfarin on safety and efficacy outcomes in atrial fibrillation patients: a systemic review and meta-regression analysis.
Blood samples were collected and processed according to the standard protocols.

Factor Xa = target: T1, Factor Xa (Homo sapiens, UniProt P00742); experiment: Factor Xa activity after rivaroxaban with or without verapamil; type: in vivo
T1 construct: host or cells: human subjects
Source text: Additional pharmacodynamic metrics are also gathered for each patient, including, but not limited to: prothrombin time (using the STA® Neoplastin® method) and Factor Xa activity. Protocols for each of these analyses have been described in Nielsen et al 2015. Renal Function and non-vitamin K oral anticoagulants in comparison with warfarin on safety and efficacy outcomes in atrial fibrillation patients: a systemic review and meta-regression analysis.

[4] = Risk of major bleeding from steady state rivaroxaban AUC (FIG. 5); type: in vivo, human
Experimental: See Center for Drug Evaluation and Research, Application No. 022406Orig1s000, Clinical Pharmacology and Biopharmaceutics Review(s), at page 36, which is hereby incorporated by reference in its entirety.
Group “c” represents the average of the three subjects in Group “b” who had the highest AUCinf, which was about 8,143 μg·hr/L. The risk of major bleeding of the subjects in Group “c” were at least 5 times higher compared to the populations in Group “a” and not even visible on this scale.

[5] = Reported rivaroxaban serious bleeding adverse events by concomitant drug; type: in vivo, human
Source text: 8, 2015, American Heart Association, Scientific Sessions 2015, and published at http://www.abstractsonline.com/pp8/#!/3795/presentation/37668).

[6] = Drug-drug interaction study of oral verapamil and 0.5-2.5 mg rivaroxaban (Example 4); type: in vivo, human; settings: 0.5-2.5 mg rivaroxaban with verapamil (100-480 mg)
Experimental: A control study is performed to determine the presence of DDIs in patients treated with oral verapamil and rivaroxaban (without aspirin). […]. A representative example of a sample study is found in Example 1.

[7] = Drug-drug interaction study of oral verapamil, aspirin and rivaroxaban (Example 5); type: in vivo, human; settings: for Risk of major bleeding: e.g.
Experimental: Additional studies are performed to determine the presence of DDIs in patients treated with oral verapamil, aspirin, and rivaroxaban. […] A representative example of such a study is found in Example 1. […] Additionally, these studies show a linear relationship between the pharmacokinetic and the pharmacodynamics of rivaroxaban in subjects with normal renal function and renal insufficiency.

[8] = cited from earlier work; remark: listed apart in the source
[9] = cited from earlier work; remark: listed apart in the source
[10] = Example 1: 20 mg rivaroxaban + 360 mg verapamil vs rivaroxaban alone
[11] = Example 4: 0.5-2.5 mg rivaroxaban with verapamil (100-480 mg)

T1 sequence (P00742 235-488 limits assumed): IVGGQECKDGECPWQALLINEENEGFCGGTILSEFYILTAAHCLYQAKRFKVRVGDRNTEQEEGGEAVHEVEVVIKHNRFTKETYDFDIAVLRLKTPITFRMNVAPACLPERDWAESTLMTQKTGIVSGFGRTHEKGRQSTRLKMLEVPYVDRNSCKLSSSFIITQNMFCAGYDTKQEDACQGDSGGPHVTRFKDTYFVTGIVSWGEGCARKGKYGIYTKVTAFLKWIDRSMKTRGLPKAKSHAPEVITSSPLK
T1 sequence (P00742 41-179 partner limits assumed): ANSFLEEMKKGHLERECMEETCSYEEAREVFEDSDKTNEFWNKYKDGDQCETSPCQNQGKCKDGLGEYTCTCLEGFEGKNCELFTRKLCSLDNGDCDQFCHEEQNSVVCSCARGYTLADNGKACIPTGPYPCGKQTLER
Chain of P-gp (P08183 whole entry): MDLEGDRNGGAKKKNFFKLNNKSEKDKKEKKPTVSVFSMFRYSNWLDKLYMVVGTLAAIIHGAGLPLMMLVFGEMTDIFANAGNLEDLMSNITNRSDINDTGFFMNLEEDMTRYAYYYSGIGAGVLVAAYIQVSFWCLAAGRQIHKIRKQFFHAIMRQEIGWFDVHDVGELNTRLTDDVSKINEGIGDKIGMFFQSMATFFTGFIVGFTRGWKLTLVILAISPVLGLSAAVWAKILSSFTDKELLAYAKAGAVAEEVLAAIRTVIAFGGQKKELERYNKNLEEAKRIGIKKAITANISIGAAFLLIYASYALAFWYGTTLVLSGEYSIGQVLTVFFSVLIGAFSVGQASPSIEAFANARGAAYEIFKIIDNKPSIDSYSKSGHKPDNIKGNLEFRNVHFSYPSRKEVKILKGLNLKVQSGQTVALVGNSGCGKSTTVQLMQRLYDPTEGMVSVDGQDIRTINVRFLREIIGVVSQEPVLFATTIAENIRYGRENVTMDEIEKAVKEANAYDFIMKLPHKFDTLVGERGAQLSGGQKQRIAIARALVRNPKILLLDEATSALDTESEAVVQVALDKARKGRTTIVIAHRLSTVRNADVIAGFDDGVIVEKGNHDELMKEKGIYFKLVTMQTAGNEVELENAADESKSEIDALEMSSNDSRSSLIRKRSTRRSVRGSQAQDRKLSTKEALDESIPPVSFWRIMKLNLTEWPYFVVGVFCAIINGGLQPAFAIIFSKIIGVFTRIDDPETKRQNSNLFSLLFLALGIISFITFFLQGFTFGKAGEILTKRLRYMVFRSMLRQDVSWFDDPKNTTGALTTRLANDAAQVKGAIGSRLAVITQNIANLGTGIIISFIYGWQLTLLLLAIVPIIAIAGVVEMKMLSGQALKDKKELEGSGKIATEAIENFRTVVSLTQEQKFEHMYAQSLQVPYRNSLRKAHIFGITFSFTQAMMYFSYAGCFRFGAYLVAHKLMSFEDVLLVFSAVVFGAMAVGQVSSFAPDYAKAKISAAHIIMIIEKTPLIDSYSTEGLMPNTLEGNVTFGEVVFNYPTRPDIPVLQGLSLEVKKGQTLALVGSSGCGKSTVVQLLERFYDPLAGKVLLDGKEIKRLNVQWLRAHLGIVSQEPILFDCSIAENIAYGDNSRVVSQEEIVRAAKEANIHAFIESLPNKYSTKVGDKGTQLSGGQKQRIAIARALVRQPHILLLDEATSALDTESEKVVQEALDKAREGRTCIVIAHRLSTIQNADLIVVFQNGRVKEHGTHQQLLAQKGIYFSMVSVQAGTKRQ

SMILES: COc1ccc(NC(=O)c2ccc(C(=N)N(C)C)cc2)c(C(=O)Nc2ccc(Cl)cn2)c1 [betrixaban]
- Exposure on concomitant use of P-gp inhibitors, such as verapamil ([1]; BEVYXXA label): increased exposure to betrixaban

SMILES: CC[C@H]1OC(=O)[C@H](C)[C@@H](O[C@H]2C[C@@](C)(OC)[C@@H](O)[C@H](C)O2)[C@H](C)[C@@H](O[C@@H]2O[C@H](C)C[C@H](N(C)C)[C@H]2O)[C@](C)(O)C[C@@H](C)C(=O)[C@H](C)[C@@H](O)[C@]1(C)O [erythromycin]
- Eliminated renally (unchanged) [2]: 2-15%
- Inhibition of P-gp-mediated efflux of rivaroxaban across cell monolayers (P-gp): did not inhibit

SMILES: O=C(NC[C@H]1CN(c2ccc(N3CCOCC3=O)cc2)C(=O)O1)c1ccc(Cl)s1 [Rivaroxaban]
- CL/F/kg ([3]; Period I, rivaroxaban alone, Group 2 normal renal function (N = 13), outlier sample excluded, arithmetic mean): 0.108 (L/hr)/kg
- CL/F/kg ([3]; Period III, rivaroxaban and verapamil, Group 2 normal renal function (N = 10), individual subjects): 0.0664 (L/hr)/kg and 0.0705 (L/hr)/kg and 0.0839 (L/hr)/kg
- CL/F/kg ([3]; Period III, rivaroxaban and verapamil, Group 2 normal renal function (N = 10), median): 0.0664 (L/hr)/kg
- t1/2 ([3]; human, in vivo, 20 mg): 9.44 h
- PT on concomitant verapamil (Prothrombin Time; [10]): prolonged PT
- PT on concomitant verapamil (Prothrombin Time; [11]): prolonged PT
- Relationship between plasma concentrations of rivaroxaban and PT (pharmacokinetics vs pharmacodynamics) (Prothrombin Time; subjects with normal renal function and mild renal insufficiency, Day 1 and Day 15, FIGS. 1 and 2): clear linear relationship
- Factor Xa inhibition on concomitant verapamil (Factor Xa; [10]): increased Factor Xa inhibition
- Factor Xa inhibition on concomitant verapamil (Factor Xa; [11]): increased Factor Xa inhibition
- Risk of major bleeding, Group a ([4]; fed subjects, single 20 mg rivaroxaban, AUC about 2,026 μg·hr/L, FIG. 5): about 3%
- Risk of major bleeding compared to Group a, Group b ([4]; mild renal impairment, single 20 mg rivaroxaban and 360 mg verapamil): 2.5 times higher
- Risk of major bleeding compared to Group a, Group c ([4]; three subjects of Group b with the highest AUCinf): at least 5 times higher
- Association with increased serious bleeding adverse events ([5]; concomitant administration of rivaroxaban and erythromycin): not associated with increased serious bleeding adverse events
- Share of the reported rivaroxaban serious bleeding adverse events ([5]; patients concomitantly administered verapamil and rivaroxaban, who account for only 22% of the total population receiving rivaroxaban): 30%
- Rivaroxaban plasma concentrations on concomitant verapamil [6]: higher rivaroxaban plasma concentrations
- Risk of major bleeding compared to subjects not concomitantly administered verapamil ([7]; concomitant oral verapamil, aspirin and rivaroxaban): significantly higher risk of major bleeding
- Risk of major bleeding ([7]; single 1.75 mg rivaroxaban and verapamil (e.g., 360 mg), Example 5, from about 1.5-2.0%): not more than 4.5%
- Risk of major bleeding ([7]; single 2.5 mg rivaroxaban, verapamil (e.g., 360 mg) and aspirin (100 mg), about 3%): not more than 4.5%
- Geometric mean AUC of rivaroxaban for 2.5 mg dose ([8]; 2.5 mg rivaroxaban, no verapamil): 165.4 μg·h/L to 551.9
- Geometric mean AUC of rivaroxaban for 5 mg dose ([8]; 5 mg rivaroxaban, no verapamil): 1064.25 µg·h/L
- Average AUC (average geometric mean), Group a ([8]; fed subjects across studies 10989 and 11938, single 20 mg rivaroxaban, FIG. 5): approximately 2,026 μg·hr/L
- Upper bound of the 90% confidence interval of the steady state AUC (Label A) ([8]; patients administered 20 mg of rivaroxaban, FIG. 4): about 3,792 μg·hr/L
- Upper boundary of the 90% confidence interval of the steady state AUC (Label C) ([8]; single 20 mg dose of rivaroxaban after a meal (study 10989), FIG. 4): about 2,448 μg·hr/L
- Dose eliminated in urine as unprocessed active drug [2]: ~36%
- Dose eliminated through active renal secretion [2]: 30%
- Dose eliminated through glomerular filtration [2]: 6%
- Dose subject to metabolic degradation via the liver's oxidative and hydrolytic pathways [2]: two-thirds
- Share of rivaroxaban clearance accounted for by CYP3A4 [2]: approximately 18%
- Risk of major bleeding events compared to aspirin alone ([9]; 2.5 mg rivaroxaban (BID) and aspirin): increase the risk of major bleeding events
- Risk of major bleeding events compared to aspirin alone ([9]; 5 mg dose of rivaroxaban alone): increase the risk of major bleeding events
- Clinical outcomes (stroke, myocardial infarction, cardiovascular death) compared to aspirin alone and rivaroxaban 5 mg BID alone ([9]; rivaroxaban 2.5 mg BID and aspirin, patients with cardiovascular disease): reduce several clinical outcomes

SMILES: CN1CCc2nc(C(=O)N[C@@H]3C[C@@H](C(=O)N(C)C)CC[C@@H]3NC(=O)C(=O)Nc3ccc(Cl)cn3)sc2C1 [edoxaban]
- Bleeding or other adverse events on co-administration with verapamil ([1]; Mendell et al.): did not lead to any increased bleeding or other adverse events
